Values joined by “and” are separate entries in the source; they are usually repeats but may differ in a detail not shown here. Equal values may be shown once.
Experiments:
[1] = Phase 2 trial Stage 1, adverse events; format: in vivo, human; details: Stage 1 (10 dosed), single oral doses
From the text: Tolerability limits included diarrhea or vomiting.

[2] = Phase 2 trial Stage 2, adverse events; format: in vivo, human
Procedure: (§1) In Stage 2, 34 patients were evaluated.

[3] = test system: patients with PD and constipation; test: Stage 2 bowel function, stool related indices; format: in vivo, human; details: Stage 2, fixed dose, n = 34
Procedure: Following successful screening, all subjects underwent a 14-day run-in period where the degree of constipation was assessed through a validated daily log (Zinsmeister et al., 2013) establishing baseline CSBMs/week. Subjects with an average of <3 CSBMs/week proceeded to dosing.
as §1
The primary efficacy outcome variable was whether or not a subject was a “success” or “failure.” This is an endpoint based on subject diary entries for the “fixed dose” period prior to the endpoint assessment defined as average complete stool frequency increase by 1 or more over baseline, or 3 or more complete spontaneous stools/week. The subject was deemed a “success” if s/he met one or more of the criteria listed above, otherwise the subject was deemed a “failure.” The primary analysis was based on all subjects with a baseline assessment and an assessment at the end of the “fixed-dose” period and was a comparison of the proportion of successes with 0.10 (the null hypothesis corresponding to no treatment effect).

[4] = test system: patients with PD and constipation; test: Circadian rhythm of wrist skin temperature; format: in vivo, human
Procedure: (6) I-Button Temperature Assessment. The I-Button is a small, rugged self-sufficient system that measures temperature and records the results in a protected memory section. The Thermochron I-Button DS1921H (Maxim Integrated, Dallas, Tex.) was used for skin temperature measurement. I-Buttons were programmed to sample every 10 mins., and attached to a double-sided cotton sport wrist band using Velcro, with the sensor face of the I-Button placed over the inside of the wrist, on the radial artery of the dominant hand. Subjects removed and replaced the data logger when necessary (i.e., to have a bath or shower). The value of skin temperature assessment in sleep research is that the endogenous skin warming resulting from increased skin blood flow is functionally linked to sleep propensity. From the collected data, the mesor, amplitude, acrophase (time of peak temperature), Rayleight test (an index of interdaily stability), mean waveforms are calculated);
Assessments were made at baseline and at the end of the fixed dose and washout periods. Circadian system status was evaluated by continuously monitoring wrist skin temperature (Thermochron iButton DS1921H; Maxim, Dallas) following published procedures (Sarabia et al. 2008).
Circadian rhythm of skin temperature was evaluable in 12 patients (i.e., those who had recordings that extended from baseline through washout). Circadian system functionality was evaluated by continuously monitoring wrist skin temperature using a temperature sensor (Thermochron iButton DS1921H; Maxim, Dallas, Tex.) (Sarabia et al. 2008). A nonparametric analysis was performed for each participant to characterize DST as previously described (Sarabia et al. 2008; Ortiz-Tudela et al. 2010).
Briefly, this analysis includes the following parameters: (i) the inter-daily stability (the constancy of 24-hour rhythmic pattern over days, IS); (ii) intra-daily variability (rhythm fragmentation, IV); (iii) average of 10-minute intervals for the 10 hours with the minimum temperature (L10); (iv) average of 10-minute intervals for the 5 hours with the maximum temperature (M5) and the relative amplitude (RA), which was determined by the difference between M5 and L10, divided by the sum of both. Finally, the Circadian Function Index (CFI) was calculated by integrating IS, IV, and RA. Consequently, CFI is a global measure that oscillates between 0 for the absence of circadian rhythmicity and 1 for a robust circadian rhythm (Ortiz-Tudela et al., 2010).

Solubility in water = format: physicochemical; details: pH<3.5 (the pH of gastric fluid)
αS = αS (Homo sapiens, UniProt P37840); details: in vitro; cited from earlier work
C. elegans model of PD = C. elegans model of PD in vivo; cited from earlier work
[5] = Stage 2 (34 dosed), daily oral dosing
[6] = Stage 2 (34 dosed), daily oral dosing, unrelated to ENT-01
[7] = fixed dose vs baseline, 12 patients

For `CC(C)[C@@H](CC[C@@H](C)[C@H]1CC[C@H]2[C@@H]3[C@H](O)C[C@H]4C[C@@H](NCCCNCCCCN)CC[C@]4(C)[C@H]3CC[C@]12C)OS(=O)(=O)O` (single isomer, unassigned) [squalamine (ENT-01), squalamine], the “Abdominal pain, Mild” value [1] was 2(20) n, %, the “Abdominal pain, Moderate” value [1] was 3(30) n, % and the “Blood in urine, Moderate” value [1] was 0 n, %. The “Diarrhea, Mild” value [1] was 1(10) n, %, the “Diarrhea, Moderate” value [1] was 3(30) n, % and the “Diarrhea, Severe” value [1] was 0 n, %. For the same compound, the “Difficulty falling asleep, Mild” value [1] was 0 n, %, the “Difficulty falling asleep, Moderate” value [1] was 0 n, % and the “Dizziness, Mild” value [1] was 0 n, %. For the same compound, the “Dizziness, Moderate” value [1] was 0 n, %, the “Eye infection, Mild” value [1] was 0 n, % and the “Eye infection, Moderate” value [1] was 0 n, %. The “Flatulence, Mild” value [1] was 2(20) n, %, the “Flatulence, Moderate” value [1] was 0 n, % and the “Headache, Mild” value [1] was 1(10) n, %. The “Headache, Moderate” value [1] was 0 n, %, the “Increased urinary frequency, Mild” value [1] was 0 n, % and the “Increased urinary frequency, Moderate” value [1] was 0 n, %. For the same compound, the “Loss of appetite, Moderate” value [1] was 0 n, %, the “Lower GI bleed, Severe” value [1] was 0 n, % and the “Nausea, Mild” value [1] was 4(40) n, %. For the same compound, the “Nausea, Moderate” value [1] was 0 n, %, the “Skin lesions-rash, Mild” value [1] was 0 n, % and the “Skin lesions-rash, Moderate” value [1] was 0 n, %. The “Urinary retention, Mild” value [1] was 0 n, %, the “Urinary retention, Moderate” value [1] was 0 n, % and the “Urinary tract infection, Mild” value [1] was 0 n, %. For the same compound, the “Urinary tract infection, Moderate” value [1] was 0 n, %, the “Vomiting, Mild” value [1] was 1(10) n, % and the “Vomiting, Moderate” value [1] was 0 n, %. For the same compound, the “Worsening acid reflux, Mild” value [1] was 0 n, %, the “Worsening acid reflux, Moderate” value [1] was 0 n, % and the “Worsening hemorrhoid, Mild” value [1] was 0 n, %. The “Worsening hemorrhoid, Moderate” value [1] was 0 n, %, the “Blood in urine, Mild” value ([1]; unrelated to ENT-01) was 1(10) n, % and the “Loss of appetite, Mild” value ([1]; unrelated to ENT-01) was 1(10) n, %. For the same compound, the “Abdominal pain, Mild” value [2, 5] was 4(11.7) n, %, the “Abdominal pain, Moderate” value [2, 5] was 2(5.8) n, % and the “Blood in urine, Moderate” value [2, 5] was 0 n, %. For the same compound, the “Diarrhea, Mild” value [2, 5] was 12(35) n, %, the “Diarrhea, Moderate” value [2, 5] was 2(5.8) n, % and the “Diarrhea, Severe” value [2, 5] was 1(2.9) n, %. For the same compound, the “Difficulty falling asleep, Mild” value [2, 5] was 1(3) n, %, the “Difficulty falling asleep, Moderate” value [2, 5] was 0 n, % and the “Dizziness, Mild” value [2, 5] was 7(20.5) n, %. For the same compound, the “Dizziness, Moderate” value [2, 5] was 1(2.9) n, %, the “Eye infection, Mild” value [2, 5] was 1(3) n, % and the “Eye infection, Moderate” value [2, 5] was 0 n, %. The “Flatulence, Mild” value [2, 5] was 1(3) n, %, the “Flatulence, Moderate” value [2, 5] was 0 n, % and the “Headache, Mild” value [2, 5] was 3(8.8) n, %. For the same compound, the “Headache, Moderate” value [2, 5] was 0 n, %, the “Increased urinary frequency, Mild” value [2, 5] was 2(5.8) n, % and the “Increased urinary frequency, Moderate” value [2, 5] was 0 n, %. The “Loss of appetite, Moderate” value [2, 5] was 0 n, %, the “Nausea, Mild” value [2, 5] was 18(52) n, % and the “Nausea, Moderate” value [2, 5] was 1(2.9) n, %. For the same compound, the “Skin lesions-rash, Mild” value [2, 5] was 3(8.8) n, %, the “Skin lesions-rash, Moderate” value [2, 5] was 0 n, % and the “Urinary retention, Mild” value [2, 5] was 1(3) n, %. For the same compound, the “Urinary retention, Moderate” value [2, 5] was 0 n, %, the “Urinary tract infection, Mild” value [2, 5] was 1(3) n, % and the “Urinary tract infection, Moderate” value [2, 5] was 2(5.8) n, %. For the same compound, the “Vomiting, Mild” value [2, 5] was 2(5.8) n, %, the “Vomiting, Moderate” value [2, 5] was 0 n, % and the “Worsening acid reflux, Mild” value [2, 5] was 4(11.7) n, %. The “Worsening acid reflux, Moderate” value [2, 5] was 0 n, %, the “Worsening hemorrhoid, Mild” value [2, 5] was 1(3) n, % and the “Worsening hemorrhoid, Moderate” value [2, 5] was 0 n, %. The “Blood in urine, Mild” value [2, 6] was 0 n, %, the “Loss of appetite, Mild” value [2, 6] was 0 n, % and the “Lower GI bleed, Severe” value ([2]; Stage 2, daily oral dosing, colonic diverticulosis, polyp, patient on aspirin, Plavix and naproxen, unrelated to ENT-01) was 1(2.5) n, %. For the same compound, the “CSBM, weekly average (mean, SD)” value [3] was 3.8 CSBM/week and 3.8 (2.40) CSBM/week, the “PAC-SYM (mean, SD)” value [3] was 1.1 (0.49) and the “Suppository use / rescue medication, weekly average (mean, SD)” value [3] was 0.3 /week. For the same compound, the “Consistency, Bristol stool scale 1-7 (mean, SD)” value ([3]; listed as aminosterol) was 4.1, the “Ease of passage, Ease of evacuation scale (mean, SD)” value ([3]; listed as aminosterol) was 3.7 and the “circadian function index (CFI)” value [4, 7] was “increasing”. For the same compound, the “relative amplitude (RA)” value [4, 7] was “increasing”, the “rhythm fragmentation (intra-daily variability, IV)” value [4, 7] was “reducing” and the “rhythm stability (inter-daily stability, IS)” value [4, 7] was “increasing”. For the same compound, the “impact on the circadian rhythm of skin temperature” value ([4]; oral administration, 12 patients with evaluable data) was “significant positive impact”, the “circadian function index (CFI)” value ([4]; wash-out period, 12 patients) was “improvement persisted” and the “rhythm stability (IS)” value ([4]; wash-out period, 12 patients) was “improvement persisted”. For the same compound, the dissolution (Solubility in water) was “readily dissolves”, the “formation of aggregates of αS” value (αS) was “inhibit the formation of aggregates of αS” and the “formation of aggregates of αS” value (C. elegans model of PD) was “inhibit the formation of aggregates of αS”.
